According to PMC12844208, “Screening for Peptides to Bind and Functionally Inhibit SARS-CoV-2 Fusion Peptide Using Mirrored Combinatorial Phage Display and Human Proteomic Phage Display” (Molecules, 2026):
Entries after “also recorded” stand apart in the source; their conditions may differ. Ends that are not written are not given here.

Legend:
[1] = tested on: SARS-CoV-2 infection of Vero-E6/TMPRSS2 cells; experiment: microbe, parasite or virus in culture; type: cell-based
[2] = tested on: D-FP12_biotin (SARS-CoV-2 spike fusion peptide synthesised as a D-peptide); type: binding
[3] = tested on: anti-Borrelia burgdorferi immune sera; conditions: occurrences in the anti-Borrelia burgdorferi immune sera NEB PhD7 screening dataset; cited from earlier work
From the text: Table 2 Ten enriched PhD7-mer L-peptides tested in antiviral assays as D-peptides. | column: Occurrence in an Unrelated Screen

[4] = tested on: FP; experiment: Preliminary screen of FP versus a pan-coronaviral phage display library; parameters: species or system SARS-CoV-2; conditions: lack of binding to homologous regions of other coronaviruses placed the finding in doubt
Protocol: Proteomic phage display of peptide regions of proteins is also possible for viral as well as host proteins, and a preliminary screen of FP versus a pan-coronaviral phage display library of regions of coronaviral proteins was carried out following the methods previously outlined, which only identified a single peptide, despite a large amount of sequencing data obtained. This 39mer […] peptide was derived from the nsp3 (protease-encoding) protein of coronavirus 229E comprising the last four residues of the loop between Y2 and Y3 regions and the first 35 residues of the Y3 region. Y3 plays a role in double-membrane vesicle formation, but the lack of binding to homologous regions of other coronaviruses in the library placed the finding in doubt.

Compound	Read Count [2]	further results
CCC(CC)COC(=O)[C@H](C)N[P@](=O)(OC[C@H]1O[C@@](C#N)(c2ccc3c(N)ncnn23)[C@H](O)[C@@H]1O)Oc1ccccc1 [Remdesivir, reference compound]	–	inhibition of infection (in words) [1]: strongly inhibited; inhibition at 5 µM ([1]; Severe acute respiratory syndrome coronavirus 2, VeroE6/TMPRSS2, read-out: inhibition of infection): 95%
LTSLPRN	4284	–
WSRGYTG	3676	–
WSLGYTG	6,280,489	Occurrence in an Unrelated Screen [3]: 4
LEVYYET	3570	–
RDHYMMF	7135	–
HFARHLA	7063	–
NTWPYKP	264,257	Occurrence in an Unrelated Screen [3]: 1
ETSTMYP	3552	effect on SARS-CoV-2 infection (number of infected cells compared to vehicle controls) [1]: exception
RRRRRRRRGPDRNFRLSEHRQALA-NH2 [OTUD1-derived peptide]	–	inhibition of SARS-CoV-2 infection of Vero-E6/TMPRSS2 cells (in words) [1]: no evidence for any marked impact; also recorded: failed to inhibit viral infection
LSTLSVDFNGVLHKAYIDVLRNSFGKDLNANMSLAECKR	–	peptide identified as binding FP in the pan-coronaviral library [4]: identified
SLTGTRF	11,170	–
HDTTLIT	169,773	–
